Source: patent publication EP4710775A1, “COMPOSITION FOR PROMOTING CHILD DEVELOPMENT” (Meiji Holdings Co., Ltd., priority 2023, dated 2024)

How the values were obtained:
Format in all cases: in vivo, mouse (C57BL/6J)
[1] = Measurement of plasma triglyceride concentration after weaning (Triglyceride E-test Wako); details: two weeks after weaning, males only, NMN n = 5, control n = 7, NMN orally days 3 to 21 after birth, vs control group
Description: (§1) β-Nicotinamide mononucleotide (NMN) to be administered to mice was dissolved at a concentration of 100 mg/mL in distilled water and then used for administration.
(§2) Ten female C57BL/6J lines at day 13 of gestation were purchased. The mice were individually raised in a breeding room at a room temperature of 22 ± 2°C, humidity of 55 ± 15%, light period of 7:00 to 19:00, and dark period of 19:00 to 7:00 until the birth of the pups, and after the birth, group breeding was performed with the pups until weaning, and the born mouse pups were used for the test.
(§3) All the mouse pups were subjected to sex determination on day 3 after birth, and were divided into distilled water administration (later control group) and NMN administration (later NMN group) so that the number of males and females was approximately half in the littermates. […]
(§4) The body weights of the mouse pups were measured on the day of weaning, and the pups were divided into a total of two groups: a control group (n = 7) and an NMN group (n = 5) only for males. […]
Using the separated plasma, the triglyceride concentration was measured by a kit (Triglyceride E-test Wako: No. 432-40201).

[2] = Open field test: amount of voluntary activity and average moving speed after weaning; details: two weeks after weaning, 10 minutes, males and females combined, n = 20 per group, NMN orally days 3 to 21 after birth, vs control group, p < 0.05
Description: as §1
as §2, with “test. […]” for “test.”
(§5) The body weights of all the mouse pups were measured on the day of weaning, and the pups were divided into a total of four groups: a control group and an NMN group for males and a control group and an NMN group also for females (n = 10 for each group), so that the average values of the body weights were equal. […]
Two weeks after weaning, an open field test was performed on all the individuals to measure the amount of voluntary activity and the average moving speed. […] From the obtained moving image, the amount of voluntary activity (total movement distance) and the average moving speed (average of moving speed excluding immobility state) were calculated using dedicated analysis software (SMART3.0: manufactured by Panlab).

[3] = Measurement of blood glucose level in plasma after weaning (Glucose II-test Wako); details: two weeks after weaning, males only, NMN n = 5, control n = 7, NMN orally days 3 to 21 after birth, vs control group, p < 0.01
Description: as §1, §2, §3, §4
Using the separated plasma, the blood glucose concentration (blood glucose level) was measured by a kit (Glucose II-test Wako: No. 439-90901).

[4] = Measurement of grip strength (forelimb) after weaning in mice given NMN in infancy; details: three weeks after weaning; males and females combined, n = 20 per group; corrected by body weight; NMN orally gavaged days 3 to 21 after birth (500 mg/kg BW from day 14); vs control group, p < 0.05
Description: as §1
as §2, with “test. […]” for “test.”
as §5
Three weeks after weaning, the grip strength (forelimb only) of all the individuals was measured using Grip Strength Meter for Rats & Mice (MK-380CM/F, manufactured by Muromachi Kikai Co., Ltd.). The measurement was performed 10 times per individual, and the maximum value was recorded. […]

[5] = White fat weight measurement (white adipose tissue around the reproductive organ) after weaning; details: two weeks after weaning; relative weight corrected by body weight; males and females combined, n = 10 per group; NMN orally days 3 to 21 after birth; vs control group, p < 0.01
Description: as §1, §2, §3
The body weights of all the mouse pups were measured on the day of weaning, and the pups were divided into a total of four groups: a control group (n = 7) and an NMN group (n = 5) for males, and a control group (n = 3) and an NMN group (n = 5) also for females. After weaning, the mice were normally bred for 2 weeks and dissected, the white adipose tissue around the reproductive organ was extracted, and the weight thereof was measured. […]

In the case of `NC(=O)c1ccc[n+]([C@@H]2O[C@H](COP(=O)([O-])O)[C@@H](O)[C@H]2O)c1` [NMN, β-Nicotinamide mononucleotide], the blood triglyceride concentration [1] is reported as “tended to be low as compared to that in the control group”, the average moving speed ([2]; excluding immobility state) is reported as “high as compared to those in the control group” and the “amount of voluntary activity” value ([2]; total movement distance) is reported as “high as compared to those in the control group”. The blood glucose levels [3] was “significantly low as compared to those in the control group”, the grip strength [4] was “high as compared to that in the control group” and the white fat weight [5] was “low as compared to that in the control group”.
